Measurements published in patent US20120157500A1, “JAK INHIBITION BLOCKS RNA INTERFERENCE ASSOCIATED TOXICITIES” (priority 2009, published 2012).

Assays:
[1] = tested on: LF01-SSB-induced lethality and visible hematuria; assay: Suppression of LF01-SSB-induced lethality and visible hematuria by inhibitors; assay type: in vivo; details: rats; for Rescue effect: Death, +inhibitor/−inhibitor / Rescue effect: Red urine, +inhibitor/−inhibitor: inhibitor 1 hr prior to LF01-SSB 9 mg/kg IV, animals with inhibitor/without inhibitor; for Rescue effect: Death, +inhibitor/−inhibitor: deaths until 96 hr; for Rescue effect: Red urine, +inhibitor/−inhibitor: urine collected over 24 hr
Description: Since LF01-siRNA nanoparticles provoked lethality and multifactorial toxicities involving different systems in rats, this offers an in vivo model for pharmacologically probing the mechanism that triggers LF01-siRNA toxicities. We first evaluated the suppression of LF01-SSB-induced lethality and visible hematuria by anti-inflammation drugs and pathway-specific inhibitors of the innate immune system as shown in Table 1. […] Rats were pre-dosed with either a vehicle or one of these reagents using the dosing regimen listed in Table 1, followed by an IV dose of LF01-SSB at 9 mpk 1 hr later, and animals were monitored for lethality for 96 hr. In addition, urine was collected over the course of 24 hr for visual observation of hematuria.
Rats were dosed with PBS or one of these inhibitors 1 hr prior to IV administration of PBS or […] at 9 mg/kg. Urine samples were collected over a course of 24 hr for visual examination of hematuria (red urine). Animals were monitored for lethality until 96 hr post LF01-SSB dose. Unscheduled deaths and cases of visible hematuria in animals receiving LF01-SSB with or without inhibitor pretreatment were scored and presented.
(§1) Rat studies. All animal studies were conducted at AAALAC-accredited Merck Research laboratories' animal facility located at West Point, Pa., and all study protocols were approved by Merck West Point Institutional Animal Care and Use Committee (IACUC). Female Sprague-Dawley (SD) rats obtained from Charles River were used in these studies at an age of 4-6 weeks and with a body weight of 120-160 grams. Anti-inflammation agents were administrated using the dosing regimens listed in Table 1, 1 hr prior to tail vein injection of liposomal siRNA nanoparticles in PBS in a volume of 0.8 ml under normal pressure. At 3 hr post injection of liposomal siRNA, ˜0.2 ml blood was collected by retro-orbital bleed under anesthesia and processed as plasma for the assessment of cytokines. At 24 hr, blood was collected for evaluation of complete blood cell counts (CBC), coagulation parameters and serum chemistry by venipuncture under anesthesia followed by exsanguination, and tissues from liver, spleen and kidney were collected for determination of SSB and ApoB mRNA levels and TUNEL analysis. For visual examination of urine color, rats were housed in metabolic cages to collect urine over a course of 24 hours after injection of liposomal siRNA nanoparticles. Animals were examined 3 times a day for detection of lethality over a course of 96 hours.

[2] = tested on: LF01-SSB-induced toxicities; assay: LF01-SSB-induced toxicities in rats with or without inhibitor pretreatment; assay type: in vivo; details: for suppression of cytokine release, elevation of serum transaminases, thrombocytopenia or coagulopathy induced by LF01-SSB: pretreatment before LF01-SSB 3 mg/kg
Protocol: as §1, with “At 24 hr, blood was collected for evaluation of complete blood cell counts (CBC), coagulation parameters and serum chemistry by venipuncture under anesthesia followed by exsanguination, and tissues from liver, spleen and kidney were collected for determination of SSB and ApoB mRNA levels and TUNEL analysis.” left out
Analyses of rat blood samples. Cytokines in plasma were quantified using a microsphere bead-based, multiplexed assay, Milliplex™ RCYTO-80K-PMX23 (Millipore) which allows simultaneous quantification of 23 rat cytokines including IFNγ, IL-6, MCP-1 and TNFα. All CBC, coagulation and serum chemistry parameters were analyzed by Merck Laboratory of Animal Resources and the Safety Assessment Department at West Point, Pa. CBC was determined on whole blood placed in an EDTA-treated tube using an Advia 120 Hematology Analyzer (Siemens). Coagulation parameters in citrated plasma were assessed with a Behring Coagulation System (Siemens) and serum chemistry evaluation was conducted with an Advia 1800 Clinical Chemistry Analyzer (Siemens).
TUNEL (Terminal deoxynucleotidyl transferase-mediated dUTP-biotin Nick End Labeling). TUNEL staining in tissue sections was performed using a ‘TACS™ TdT-Blue Label in Situ Apoptosis Detection Kit’ (Trevigen). Briefly, 5 μm paraffin embedded sections of liver tissue were deparaffinized, fixed, labeled, and counterstained according to the manufacturer's recommendations. In Situ labeling procedure includes extension of 3′ ends with Biotin-dNTP (TdT Labeling Rxn), followed by additions of Strep-HRP and “TACS-Blue” Label or DAB for color development. TUNEL signal was quantified using the Arial system (Applied Imaging). Quantification of mRNA. qRT-PCR assays were used to quantify SSB and ApoB mRNA levels relative to the housekeeping gene Ppib in lysates prepared from tissues using kits from Applied Biosystems. The catalog numbers are Rn0057621_g1 for SSB, Rn01499054_m1 for ApoB and Rn03302274_m1 for Ppib.

[3] = biological target: T1, IKK1 (Homo sapiens, UniProt O15111); details: Table 1, from former studies; cited from earlier work
T1 sequence (O15111 1-745): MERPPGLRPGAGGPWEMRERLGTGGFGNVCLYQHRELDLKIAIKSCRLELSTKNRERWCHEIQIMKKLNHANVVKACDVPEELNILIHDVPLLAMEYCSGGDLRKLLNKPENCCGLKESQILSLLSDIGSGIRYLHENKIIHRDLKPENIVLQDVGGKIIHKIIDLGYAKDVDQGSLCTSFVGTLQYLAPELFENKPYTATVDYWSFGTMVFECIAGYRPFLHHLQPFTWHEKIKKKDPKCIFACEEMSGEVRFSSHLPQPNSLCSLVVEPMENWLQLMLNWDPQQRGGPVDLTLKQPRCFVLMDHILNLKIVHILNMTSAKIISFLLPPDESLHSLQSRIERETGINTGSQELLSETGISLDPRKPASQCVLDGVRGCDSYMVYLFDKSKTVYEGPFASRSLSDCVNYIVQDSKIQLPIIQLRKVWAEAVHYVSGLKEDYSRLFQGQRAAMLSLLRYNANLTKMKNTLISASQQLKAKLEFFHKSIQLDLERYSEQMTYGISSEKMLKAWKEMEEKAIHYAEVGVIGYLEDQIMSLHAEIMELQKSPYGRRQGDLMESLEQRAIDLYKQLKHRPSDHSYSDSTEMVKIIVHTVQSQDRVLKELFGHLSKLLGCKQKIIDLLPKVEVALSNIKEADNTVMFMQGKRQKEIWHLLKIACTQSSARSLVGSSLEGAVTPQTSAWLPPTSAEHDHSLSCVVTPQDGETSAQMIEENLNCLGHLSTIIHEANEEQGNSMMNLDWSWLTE

[4] = biological target: T2, IKK2 (Homo sapiens, UniProt O14920); details: Table 1, from former studies; cited from earlier work
T2 sequence (O14920 1-756): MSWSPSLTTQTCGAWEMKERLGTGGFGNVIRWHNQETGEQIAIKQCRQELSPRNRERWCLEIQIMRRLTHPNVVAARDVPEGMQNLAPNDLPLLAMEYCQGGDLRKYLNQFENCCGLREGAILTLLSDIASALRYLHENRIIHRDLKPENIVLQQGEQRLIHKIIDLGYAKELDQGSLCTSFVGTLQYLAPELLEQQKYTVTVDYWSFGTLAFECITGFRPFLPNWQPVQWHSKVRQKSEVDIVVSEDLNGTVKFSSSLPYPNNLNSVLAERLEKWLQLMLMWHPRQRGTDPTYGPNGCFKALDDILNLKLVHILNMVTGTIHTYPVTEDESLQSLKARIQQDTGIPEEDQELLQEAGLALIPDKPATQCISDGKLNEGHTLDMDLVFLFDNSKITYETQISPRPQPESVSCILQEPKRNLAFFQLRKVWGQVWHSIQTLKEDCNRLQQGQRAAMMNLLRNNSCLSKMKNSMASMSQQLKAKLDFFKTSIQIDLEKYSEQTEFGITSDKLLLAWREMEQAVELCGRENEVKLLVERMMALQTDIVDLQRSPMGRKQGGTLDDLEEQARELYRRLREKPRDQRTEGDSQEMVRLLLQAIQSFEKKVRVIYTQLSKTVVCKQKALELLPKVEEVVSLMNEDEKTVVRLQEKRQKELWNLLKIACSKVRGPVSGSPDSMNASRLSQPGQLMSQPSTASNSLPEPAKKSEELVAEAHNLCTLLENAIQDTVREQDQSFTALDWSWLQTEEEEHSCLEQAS

Structure (SMILES)	Rescue effect: Death, +inhibitor/−inhibitor [1]	Rescue effect: Red urine, +inhibitor/−inhibitor [1]	suppression of cytokine release, elevation of serum transaminases, thrombocytopenia or coagulopathy induced by LF01-SSB ([2]; rats)	effect on LF01-SSB-induced coagulopathy (elongation of aPTT) ([2]; rat, in vivo)	effect on LF01-siRNA induction of IL-6 ([2]; rats, plasma 3 hr post LF01-SSB dose)	effect on LF01-SSB-induced lethality and visible hematuria ([1]; pre-dosed 1 hr before LF01-SSB 9 mpk IV, monitored 96 hr)	effect on LF01-SSB toxic responses (cytokine induction, ALT and AST elevation, thrombocytopenia, elongation of aPTT, hepatic and splenic cell death) ([2]; rat, in vivo)	IC50 [3] [nM]	effect on LF01-SSB-induced coagulopathy (elongation of aPTT) ([2]; rats, pre-dosed 1 hr prior to LF01-SSB 3 mg/kg IV, 24 hr)	IC50 [4] [nM]
Cc1ccc(-c2ncc(Cl)cc2-c2ccc(S(C)(=O)=O)cc2)cn1 [Etoricoxib]	4/3	4/4	no appreciable suppression							
N=C(N)NN [Aminoguanidine]	4/3	2/3	no appreciable suppression							
C[S+]([O-])c1ccc(-c2nc(-c3ccncc3)c(-c3ccc(F)cc3)[nH]2)cc1 (stereo not shown) [SB-203580]	2/5	2/5		no mitigation effect	abrogated					
C[C@@H]1CCN(C(=O)CC#N)C[C@@H]1N(C)c1ncnc2[nH]ccc12 [CP-690550]	0/4	0/4				prevented	suppression of toxic responses			
N.S=C(S)N1CCCC1 [PDTC]	4/5	3/5						400	no mitigation effect	20
